Where two headings read alike, the source gives them in different places. Residues, ends and D or L forms follow the SMILES beside them.
Key:
[1] = molecular target: HLA-DRA-IEα/HLA-DRB1*0401-IEβ chimeric molecules purified from transfected M12.C3 cells (Homo sapiens, UniProt P01903+P01911, A100K/A169T/F76Y/I96L/K127E/L162R/M171V/N62H/P40V/Q125Y/R42H/S133A/S149N/S66Y/V115G/V209L/W38E); assay: biochemical; format: binding, human/mouse chimeric
[2] = molecular target: HLA-DRB1*0401 molecules purified from Priess cells (Homo sapiens, UniProt P01903+P01911, A100K/A169T/F76Y/I96L/K127E/L162R/M171V/N62H/P40V/Q125Y/R42H/S133A/S149N/S66Y/V115G/V209L/W38E); assay: biochemical; format: binding
[3] = tested on: experimental allergic encephalomyelitis in HLA-DRA-IEα/HLA-DRB1*0401-IEβ Tg mice; format: in vivo, mouse

SMILES: CC[C@H](C)[C@H](NC(=O)[C@H](CO)NC(=O)[C@H](CCC(N)=O)NC(=O)[C@H](CS)NC(=O)[C@@H](NC(=O)[C@@H](NC(=O)[C@H](Cc1c[nH]c2ccccc12)NC(=O)[C@@H](NC(=O)[C@H](CC(N)=O)NC(=O)[C@H](Cc1ccccc1)NC(=O)[C@H](Cc1ccc(O)cc1)NC(=O)[C@@H](NC(=O)[C@@H](N)Cc1ccc(O)cc1)[C@@H](C)CC)[C@@H](C)O)[C@@H](C)O)[C@@H](C)O)C(=O)N[C@@H](C)C(=O)N[C@@H](Cc1ccccc1)C(=O)N1CCC[C@H]1C(=O)N[C@@H](CO)C(=O)N[C@@H](CCCCN)C(=O)O [PLP175-192] (H-YIYFNTWTTCQSIAFPSK-OH)
- IC50 [1]: 169 nM
- IC50 [2]: 187 nM

SMILES: CSCC[C@H](NC(=O)[C@H](C)NC(=O)[C@H](CCCNC(=N)N)NC(=O)[C@@H](N)Cc1ccc(O)cc1)C(=O)N[C@@H](C)C(=O)N[C@H](C(=O)N[C@@H](CC(C)C)C(=O)O)[C@@H](C)O [m 1-7] (H-YRAMATL-OH)
- IC50 [1]: 130 nM
- IC50 [2]: 120 nM

SMILES: CSCC[C@H](NC(=O)[C@H](C)NC(=O)[C@H](CCCNC(=N)N)NC(=O)[C@@H](N)Cc1ccc(O)cc1)C(=O)N[C@@H](C)C(=O)N[C@@H](C)C(=O)N[C@@H](CC(C)C)C(=O)O [Peptide A6-m1-7] (H-YRAMAAL-OH)
- IC50 [1]: 530 nM
- IC50 [2]: 410 nM

SMILES: CSCC[C@H](NC(=O)[C@H](C)NC(=O)[C@H](CCCNC(=N)N)NC(=O)[C@@H](N)Cc1ccc(O)cc1)C(=O)N[C@@H](C)C(=O)N[C@@H](CO)C(=O)N[C@@H](CC(C)C)C(=O)O [Peptide S6-m1-7] (H-YRAMASL-OH)
- IC50 [1]: 53 nM
- IC50 [2]: 43 nM

SMILES: CC[C@H](C)[C@H](NC(=O)[C@H](CC(N)=O)NC(=O)[C@H](CCCCN)NC(=O)[C@H](Cc1ccccc1)NC(=O)[C@H](Cc1ccccc1)NC(=O)[C@H](Cc1c[nH]cn1)NC(=O)[C@@H](NC(=O)[C@@H](N)C(C)C)C(C)C)C(=O)N[C@H](C(=O)N[C@H](C(=O)N1CCC[C@H]1C(=O)N[C@@H](CCCNC(=N)N)C(=O)N[C@H](C(=O)N1CCC[C@H]1C(=O)N1CCC[C@H]1C(=O)N1CCC[C@H]1C(=O)N[C@@H](CO)C(=O)N[C@@H](CCC(N)=O)C(=O)NCC(=O)N[C@@H](CCCCN)C(=O)O)[C@@H](C)O)[C@@H](C)O)C(C)C [MBP87-106] (H-VVHFFKNIVTPRTPPPSQGK-OH; N-terminus and C-terminus assumed)
- Severity: number of mice with clinical score 0 (no disease) ([3]; Non-Tg mice, n = 5, Table 2): 5
- EAE developed (in words) ([3]; Tg mice): only a mild EAE
- Severity: number of mice with clinical score 0 (no disease) ([3]; Tg mice, n = 5, Table 2): 2
- Severity: number of mice with clinical score 1 (tail atony) ([3]; Tg mice, n = 5, Table 2): 2
- Severity: number of mice with clinical score 3 (hind-limb paralysis) ([3]; Tg mice, n = 5, Table 2): 1

From paper PMC2192625 (The Journal of Experimental Medicine, 1996)
